Test results published in patent publication US20150065416A1, “NOVEL DRUG COMBINATION” (FAB PHARMA SAS, priority 2013, published 2015).
Values after ≈ are worked out from the molar mass of the structure shown. Like-named read-outs stand apart in the source and are kept apart here.

Key:
[1] = tested on: A. baumannii CIP 5377, CIP 7034, AYE, SAN, RCH; test: Antimicrobial susceptibility testing (MIC, broth microdilution, EUCAST; Example 5); format: cell-based, Acinetobacter baumannii; conditions: Acinetobacter baumannii, read-out: MIC
Text: A. baumannii CIP 5377 (ATCC® 17978): low cephalosporinase producing strain, susceptible to meropenem and amikacin, isolated in an infected patient
A. baumannii CIP 7034: low cephalosporinase producing strain, susceptible to meropenem and amikacin A. baumannii AYE ATCC® BAA1710™: extended spectrum beta-lactamase producing strain susceptible to meropenem and resistant to amikacin
A. baumannii SAN-94040 (SAN): cephalosporinase-overproducing strain, susceptible to meropenem and intermediate to amikacin and resistant to fluoroquinolones, isolated from blood cultures of an intensive care patient with nosocomial pneumonia from North Africa (Algeria).
A. baumannii RCH-69: cephalosporinase producing strain; low susceptibility to imipenem and resistant to amikacin.

A. baumannii SAN-94040 [2] = test: Mouse model of A. baumannii pneumonia, Study 1: survival; format: in vivo, Acinetobacter baumannii
Method: (§1) The bacterial inoculum was prepared in order to obtain a suspension containing 10^8 CFU/mL of Acinetobacter baumannii in saline.
(§2) Experimentations were performed with six-week old female C3H/HeN mice (18-20 g, Breeding Centre JANVIER (Ile saint Genest Mayenne 53)) because of their particular susceptibility to Acinetobacter baumannii and the reproducibility of the results (inbreeding in the breed). Each mouse was individually marked and housed in cages containing five animals/cage under ventilated and controlled (temperature and humidity) atmosphere.
(§3) The mice were rendered transiently neutropenic by 2 intra-peritoneal (IP) injections of 150 μL of cyclophosphamide (Endoxan® 150 mg/kg) 4 (D-4) and 3 (D-3) days before the Acinetobacter baumannii inoculation (Day 0). This transient immunosuppression was sufficient to facilitate the development of the A. baumannii pneumonia while allowing the recovery of the neutrophil influx 2 (Day 2) days after inoculation in order to avoid or limit a systemic bacterial dissemination.
(§4) Mice were anesthetized by a mixture of oxygen and isoflurane. The bacterial inoculation was performed on Day 0 by intra-tracheal installation using an endotracheal catheter (50 μl of the suspension, thus 5.106 CFU). The positioning of the catheter in the trachea (instead of in the oesophagus) was checked by a “ring test”. The bacterial count in lungs was checked for all study groups by sacrificing one mouse immediately after inoculation.
Survival observations were assessed twice daily, up to 4 days post infection. The survival rates were compared with the Chi-square test or the Fisher exact test as appropriate. The survival curves were compared by the Kaplan-Meier method.
The aim of this experiment was to assess the […], with compound (I) via intra-peritoneal route at 200 mg/kg 3 times daily (every 8 hours) for 1 day alone and in combination with meropenem at 50 mg/kg 3 times daily (every 8 hours) for 1 day or with amikacin at 18 mg/kg 3 times daily (every 8 hours) for 1 day.

A. baumannii SAN-94040 [3] = test: Mouse model of A. baumannii pneumonia, Study 2: bacterial counts in blood and tissues; format: in vivo, Acinetobacter baumannii
Method: as §1, §2, §3, §4
Sample time points: T0 (pre-inoculation), T24h (post inoculation), T48h and T72h.
Blood samples preparation: At each time point, three mice were sacrificed per group by cervical dislocation.
Tissue samples preparation: At each time point, three mice were sacrificed per group. Lungs, kidneys, liver and spleen were collected after the blood sampling and cervical dislocation. Tissues were wiped with a sterile gauze to remove blood contaminant outside. Tissues were then be weighed, finely ground and plated on agar for quantitative culture. Cultures were incubated at 37° C. for 18 to 24 hours.
The aim of this experiment was to assess the bacterial counts in blood, lungs, spleen, liver and kidneys of transiently neutropenic female C3H/HeN mice administered, 3 hours post-inoculation of A. baumannii SAN-94040 via intra-tracheal route, with compound (I) via intra-peritoneal route at 200 mg/kg 3 times daily (every 8 hours) for 1 day alone and in combination with meropenem at 50 mg/kg 3 times daily (every 8 hours) for 1 day or with amikacin at 18 mg/kg 3 times daily (every 8 hours) for 1 day.
All results concerning bacterial counts were expressed from Day 0 (inoculation) to 72 hours post-inoculation (Day 3). Bacterial counts on Day 3 were carried out only on surviving mice and results were more objectionable for interpretation. On Day 0, only bacterial count in lung of control mice was performed. Bacterial cell counts were determined as set out in the General Procedures.

A. baumannii isolates = test: Checkerboard testing (compound (I)/antibacterial agent interaction, FIC index); format: cell-based, Acinetobacter baumannii; conditions: Acinetobacter baumannii
Method: Checkerboard interaction studies were performed using 5 isolates from each of the sub-groups and time kill studies were performed using 3 isolates from each sub-group.
Checkerboards (20 isolates, 5 per sub-group) were prepared so as to contain multiple concentrations of compound (I) with different additional antibacterial agents (amikacin, gentamicin, colistin, meropenem and tobramycin) as follows:
Serial two-fold dilutions of the antimicrobial agents alone or in combination in wells of 96 well microtiter plates were inoculated with the appropriate inoculum so that each well contained approximately 4-5×10^4 CFU/ml. Plates were incubated at 35° C. for 16-20 hours. Combination concentrations were tested between 0.25×MIC and 2×MIC. Growth and sterility controls were also included in each plate.
Synergy, indifference and antagonism were calculated based upon the use of the fractional inhibitory concentration (FIC) indices as described by Pillai, Moellering & Eliopoulos (2005) whereby:
Synergism=FIC index of ≦0.5 Indifference=FIC index >1 but ≦4 Additivity >0.5 to 1 Antagonism=FIC index of >4
Checkerboard studies were carried out as described in General Procedures using twenty different A. baumannii isolates with 5 per sub-group of: susceptible, amikacin-resistant, colistin-resistant and meropenem-resistant.

[4] = Study 1, 24 h after infection, doses as E210
[5] = Study 1, 48 h after infection, doses as E210

## NCC[C@H](O)C(=O)N[C@@H]1C[C@H](N)[C@@H](O[C@H]2O[C@H](CN)[C@@H](O)[C@H](O)[C@H]2O)[C@H](O)[C@H]1O[C@H]1O[C@H](CO)[C@@H](O)[C@H](N)[C@H]1O [amikacin]
[1]; A. baumannii AYE
  MIC: 32 µg/mL (≈ 54.6 µM)
[1]; A. baumannii CIP 5377
  MIC: 2 µg/mL (≈ 3.42 µM)
[1]; A. baumannii CIP 7034
  MIC: 8 µg/mL (≈ 13.7 µM)
[1]; A. baumannii RCH
  MIC: > 32 µg/mL
[1]; A. baumannii SAN
  MIC: 4 µg/mL (≈ 6.83 µM)
A. baumannii SAN-94040 [2]; Study 1, 0 h after infection, doses as E210
  survivors (%): 100%
A. baumannii SAN-94040 [2]; [4]
  No. of survivors: 12
  survivors (%): 86%
A. baumannii SAN-94040 [2]; [5]
  No. of survivors: 1
  survivors (%): 17%
A. baumannii SAN-94040 [2]; Study 1, 72 h after infection, doses as E210
  No. of survivors: 0
A. baumannii SAN-94040 [2]; Study 1, 96 h after infection, doses as E210
  No. of survivors: 0
A. baumannii SAN-94040 [2]; Study 1, C3H/HeN mice, 0 h after SAN-94040 infection, compound (I) 200 mg/kg, amikacin 18 mg/kg, meropenem 50 mg/kg q 8 h I.P.
  No. of survivors: 14
A. baumannii SAN-94040 [3]; Study 2, 24 h, compound (I) 200 mg/kg Q8h, amikacin 18 mg/kg, meropenem 50 mg/kg Q8h I.P. for 1 day
  lung bacterial counts: 1.33E+09 CFU/g Lung
A. baumannii SAN-94040 [3]; Study 2, 48 h
  lung bacterial counts: 4.41E+08 CFU/g Lung
A. baumannii isolates; A. baumannii 441142, colistin-resistant, read-out: MIC
  MIC: > 1020 µg/mL
A. baumannii isolates; A. baumannii 441160, colistin-resistant, read-out: MIC
  MIC: > 1020 µg/mL
A. baumannii isolates; A. baumannii 463996, colistin-resistant, read-out: MIC
  MIC: 8 µg/mL
A. baumannii isolates; A. baumannii 466936, colistin-resistant, read-out: MIC
  MIC: 64 µg/mL
A. baumannii isolates; A. baumannii 517303, colistin-resistant
  MIC: 128 µg/mL
A. baumannii isolates; A. baumannii 618649, meropenem-resistant, read-out: MIC
  MIC: 4 µg/mL
A. baumannii isolates; A. baumannii 625917, meropenem-resistant, read-out: MIC
  MIC: 4 µg/mL
A. baumannii isolates; A. baumannii 628760, susceptible, read-out: MIC
  MIC: 8 µg/mL
A. baumannii isolates; A. baumannii 637723, amikacin-resistant, read-out: MIC
  MIC: 256 µg/mL
A. baumannii isolates; A. baumannii 638115, amikacin-resistant, read-out: MIC
  MIC: 1020 µg/mL
A. baumannii isolates; A. baumannii 650216, meropenem-resistant, read-out: MIC
  MIC: 4 µg/mL
A. baumannii isolates; A. baumannii 655932, amikacin-resistant, read-out: MIC
  MIC: 512 µg/mL
A. baumannii isolates; A. baumannii 661954, amikacin-resistant, read-out: MIC
  MIC: 512 µg/mL
A. baumannii isolates; A. baumannii 667848, meropenem-resistant, read-out: MIC
  MIC: 4 µg/mL
A. baumannii isolates; A. baumannii 668116, susceptible, read-out: MIC
  MIC: 2 µg/mL
A. baumannii isolates; A. baumannii 668239, amikacin-resistant, read-out: MIC
  MIC: > 1020 µg/mL
A. baumannii isolates; A. baumannii 670348, susceptible, read-out: MIC
  MIC: 8 µg/mL
A. baumannii isolates; A. baumannii 671050, meropenem-resistant, read-out: MIC
  MIC: 8 µg/mL
A. baumannii isolates; A. baumannii 672190, susceptible, read-out: MIC
  MIC: 4 µg/mL
A. baumannii isolates; A. baumannii 674340, susceptible, read-out: MIC
  MIC: 4 µg/mL
